Assay results as given in PubChem BioAssay (NCI).
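How tested: cells in 96-well plates exposed to compound for 48 hours at five concentrations. GI50: concentration for 50% inhibition of growth. TGI is the concentration that stops growth completely.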

Tests used:
Experiment in all cases: NCI tumour cell line growth inhibition, 48 h
[1] = tested on: T-47D breast
[2] = tested on: EKVX NSCLC
[3] = tested on: DU-145 prostate
[4] = tested on: SF-268 CNS
[5] = tested on: BT-549 breast
[6] = tested on: RPMI-8226 leukemia
[7] = tested on: MDA-N
[8] = tested on: SF-539 CNS
[9] = tested on: OVCAR-3 ovarian
[10] = tested on: SK-MEL-28 melanoma
[11] = tested on: HOP-62 NSCLC

Compound	TGI [1] [µM]	TGI [2] [µM]	TGI [3] [µM]	TGI [4] [µM]	TGI [5] [µM]	TGI [6] [µM]	TGI [7] [µM]	TGI [8] [µM]	TGI [9] [µM]	TGI [10] [µM]	TGI [11] [µM]	GI50 [2] [µM]	GI50 [3] [µM]	GI50 [9] [µM]	GI50 [4] [µM]	GI50 [5] [µM]	GI50 [10] [µM]	GI50 [6] [µM]	GI50 [8] [µM]	GI50 [11] [µM]
CC(C(=O)NCNC(=O)c1ccccc1)C(=O)NCc1ccccc1 (configuration not stated)	> 100	> 100	> 100	> 100	> 100	> 100	> 100	> 100												
Nc1nc(NCc2ccccc2)cc(NCc2ccccc2)n1	25.9	41		19.3	23.5	24.6	5.97	18.3	20.2	> 100	41.7									
CC12CCC(C(=Nc3ccc([N+](=O)[O-])cc3)C1=O)C2(C)C (configuration not stated)	69.5	> 100	79.5	47.3	> 100	52.3		42.2	55.1	37.4	81.9									
CC1CC(=O)C(CC(=O)O)[C@H]1C(C(=O)C(=O)Nc1cc(Cl)ccc1Cl)[N+](=O)[O-] (some centres not stated)		> 100		> 100		> 100		> 100	> 100	> 100	> 100									
COc1ccc(C2OC2C(=O)C23CC4CC(CC(C4)C2)C3)cc1 (configuration not stated)	> 100	> 100	> 100	> 100		> 100	> 100	> 100	> 100	> 100	> 100									
CCOC(=O)n1c(=O)nc2c3c(ncn21)Oc1c(c(-c2ccccc2)nn1-c1ccccc1)C3c1ccc(Cl)cc1 (configuration not stated)	3.15		3.09	2.92	2.95	3.3	3.01	2.9	2.79	3.18	3.15									
COC(=O)[C@@H](N1C(=O)c2ccccc2C1=O)C1(C)CC(Cl)=NO1 (some centres not stated)	> 100	> 100	> 100	76.9	> 100	> 100	> 100		> 100	> 100	38.9									
COC(=O)c1c(O)ccc2c1c1c(n2CCc2ccccc2)C(=O)c2ccccc2C1			> 100	41	63.1	34	> 100	45.2	47.5	53.8	52.3									
N#Cc1nc(CCC(C(=O)O)N2C(=O)c3ccccc3C2=O)oc1N (configuration not stated)	> 100	> 100	> 100	> 100		> 100	> 100	> 100	> 100	> 100	> 100									
O=c1[nH]nc(Nc2ccc(Cl)cc2)c2nnn(-c3ccc([N+](=O)[O-])cc3)c12		> 100	48.6	> 100	> 100	> 100		39.6			> 100									
O=C(O)OC12CCCCCC1C(=O)C1CCCCC12 (configuration not stated)		> 100		> 100		> 100				> 100	> 100									
O[C@@H]1CCCCN1Cc1cc2cc3c(cc2c2cc(OCc4ccccc4)ccc12)OCO3		3.97	3.02	2.61	3.31	3.38		2.96	2.95	2.94	2.89	2.01	1.63	1.5	1.26	1.73	1.55	1.41	1.55	1.55
C(#C[C@@]12CCC[C@@H]1NCO2)c1ccc2c(c1)OCO2	> 100	> 100	> 100	> 100		> 100	> 100	> 100	> 100	> 100	> 100									
CCCCCCCC(=O)N1C2CC3CCC2(CS1(=O)=O)C3(C)C (configuration not stated)		> 100	> 100	> 100	71.6	41.5	72	41.5	> 10	> 100	44.3									
CCOC(=O)c1cn2c(n1)sc1cc([N+](=O)[O-])ccc12	> 100	> 100	> 100	> 100	> 100	> 100		> 100	> 100	> 100	> 100									
CC(=O)Nc1ccc2c3c(cc(O)c2c1)N(C(=O)CCCCCCC(=O)Nc1ccc2c4c(cc(O)c2c1)N(C(=O)OC(C)(C)C)CC4CCl)CC3CCl (configuration not stated)	2.3	1.08	0.0587	1.67	0.979		0.332	0.396	0.263		3.45									
N#CC(C#N)=CNC(=S)Nc1ccc(S(=O)(=O)Nc2nccs2)cc1	> 100	> 100	> 100	> 100	> 100		> 100	> 100	> 100	> 100	> 100									
COc1cc(N(CCC#N)CCC#N)ccc1/C(N=Nc1cccc([N+](=O)[O-])c1)=N\NC(=O)c1ccc(C)cc1	> 100	63.1	> 100	> 100	> 100	> 100	> 100		> 100	> 100	> 100									
CC(=O)OC1=C(c2ccccc2)S(=O)(=O)c2ccccc21	> 100	> 100	> 100	> 100	> 100	> 100		> 100	> 100	> 100	> 100									
Cn1c2ccccc2n2c3ccccc3c3nnc(N)c-3c12	12.9	> 100	> 100	3.68	13.8	> 100			> 100	> 100	> 86.5									
C[C@H]1CC(=O)C[C@@H]2CC[C@@H]3[C@H](CC[C@]4(C)C(OC(=O)c5cccc6c(=O)c7ccccc7[nH]c56)CC[C@@H]34)[C@]21C (some centres not stated)	> 100	> 100	> 100	> 100	> 100	55.6		> 100	> 100	> 100	> 100									
